Data on eight molecules can be found in publication PMC5588548, “Suramin Inhibits Osteoarthritic Cartilage Degradation by Increasing Extracellular Levels of Chondroprotective Tissue Inhibitor of Metalloproteinases 3” (Molecular Pharmacology, 2017).

The term EC50 denotes the concentration giving half of the maximal effect. A higher EC50 goes with a less potent agent. Broadly, the Kd is the equilibrium constant for the complex coming apart. In general, IC50 refers to the concentration needed to halve the response being measured.

One test has as its target T1, human TIMP-3 (Homo sapiens, UniProt P35625).
T1 construct: made in house; host or cells: human embryonic kidney 293 cells
T1 sequence (P35625 24-211): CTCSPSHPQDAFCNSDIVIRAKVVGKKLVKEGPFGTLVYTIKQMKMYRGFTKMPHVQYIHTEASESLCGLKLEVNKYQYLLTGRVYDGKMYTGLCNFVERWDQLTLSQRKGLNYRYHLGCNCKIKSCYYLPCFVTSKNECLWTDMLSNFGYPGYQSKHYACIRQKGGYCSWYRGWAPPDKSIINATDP
The test is described as follows: Solid-phase binding of TIMP-3 to immobilized suramin or analogs (ELISA). Particulars: TIMP-3 0.4–50 nM; for EC50: plates coated with 10 µg/ml compound, one-site specific binding model, mean ± S.E., n = 3; for Kd: solid-phase binding assay, plates coated 10 µg/ml, read-out: KD value for TIMP-3 binding to immobilized compound. On the procedure: Glycosaminoglycan-binding ELISA plates (BD Life Sciences, Swindon, UK) were coated with suramin or its analogs (10 µg/ml in Tris-buffered saline, 18 hours, 25°C) ([Mahoney et al., 2004]) and wells were blocked with 0.2% gelatin in PBS (1 hour, 37°C). Wells were washed in PBS containing 0.1% Tween 20 after this and every subsequent step. Purified FLAG-tagged human TIMP-3 (0.4–50 nM) in blocking solution was applied to wells (3 hours, 37°C), and binding was detected with anti-FLAG M2 primary antibody and anti-mouse horseradish peroxidase–conjugated secondary antibody. 3,3′,5,5′-Tetramethylbenzidine (Becton Dickinson, Swindon, UK) substrate was added, the reaction was stopped when appropriate by adding 2 N H2SO4, and absorbance at 450 nm was measured using a FLUOstar Omega microplate reader (BMG Labtech, Aylesbury, Buckinghamshire, UK). Data (mean ± S.E., n = 3 technical repeats) were analyzed using Prism 7.0b software (GraphPad Software, La Jolla, CA) and EC50 values determined using a one-site specific binding model. Flat planar dimensions of suramin analogs were estimated using ICM-Pro software (Molsoft LLC, San Diego, CA).
A general note: An ELISA detects its analyte on a solid surface through an enzyme-linked reagent.

Test [1] has as its system porcine cartilage explants. The test is described as follows: Aggrecan release from porcine cartilage explants (DMMB assay, neo-epitope immunoblotting). Particulars: porcine cartilage explants; for IC50: Sus scrofa; for protection of cartilage (release of aggrecan fragments) compared with suramin: 200 µg/ml compound. It is filed as cell-based. Here is the method: The effects of suramin on cartilage degradation were assessed using porcine or human cartilage explants. Explants were rested for 48 hours after dissection and were washed with serum-free DMEM. […]
Aggrecan degradation was analyzed by quantifying aggrecan fragments released into the conditioned media using the dimethylmethylene blue (DMMB) dye-binding assay ([Farndale et al., 1986]) (mean ± S.D., n = 3) and by immunoblotting with neo-epitope antibodies that recognize ADAMTS-cleaved but not intact aggrecan. For immunoblotting, conditioned media were deglycosylated by adding an equal volume of 200 mM sodium acetate and 50 mM Tris/HCl, pH 6.8, containing chondroitinase and β-endoglycosidase (0.05 U each; 18 hours, 37°C; Sigma-Aldrich). Aggrecan fragments were precipitated by adding five volumes of ice-cold acetone (18 hours, −20°C). After centrifugation (13,000 rpm, 10 minutes, 4°C), pellets were resuspended in SDS sample buffer, separated by electrophoresis on a 6% (v/v) polyacrylamide gel, and blotted onto polyvinylidene fluoride. Membranes were blocked with 5% (m/v) BSA in Tris-buffered saline and incubated with either a rabbit antibody that recognizes the AGEG neo-epitope generated by ADAMTS cleavage of the TAQE^1771∼^1772AGEG bond of aggrecan ([Troeberg et al., 2008]) or a mouse antibody that recognizes the ARGSV neo-epitope generated by ADAMTS cleavage of the NITEGE^373∼^374ARGSV bond ([Hughes et al., 1995]).
A general note: Immunoblotting shows a protein as a band on a membrane.

Test [2] has as its system HTB94 chondrosarcoma cells. Kind of test: Accumulation of endogenous TIMP-3 in medium of HTB94 cells. Format: cell-based. As to conditions: 200 µg/ml compound, 36 hours, immunoblotting. Here is the method: Cells (HTB94 chondrosarcoma cells, primary porcine chondrocytes, or human osteoarthritic chondrocytes) were plated overnight (6 × 10^5 cells per well of a 12-well plate) in DMEM containing 10% FCS and washed three times in serum-free DMEM.
Media were harvested, precipitated with trichloroacetic acid, and analyzed by immunoblotting using a rabbit anti–TIMP-3 polyclonal antibody (AB6000; Millipore, Hertfordshire, UK) and an alkaline phosphatase–conjugated anti-rabbit secondary antibody (Promega). […]

The test system of test [3] is purinergic signaling in chondrocytes. Also noted: method as in Varani et al., 2008. Particulars: compared with suramin; ref Varani et al., 2008; cited from earlier work.
Setting [4] is: retinoic acid 1 µM, 48 hours, DMMB assay.

“Also recorded” adds a separate entry of the source. Structures can show the parent of a compound that is named as a salt. Where two headings read alike, the source gives them in different places.

Consider `O=C(Nc1cccc(C(=O)Nc2ccc(S(=O)(=O)O)c3cc(S(=O)(=O)O)cc(S(=O)(=O)O)c23)c1)Nc1cccc(C(=O)Nc2ccc(S(=O)(=O)O)c3cc(S(=O)(=O)O)cc(S(=O)(=O)O)c23)c1` [NF023, 8,8′-[carbonylbis(imino-3,1-phenylenecarbonylimino)]bis-1,3,5-naphthalene-trisulphonic acid, hexasodium salt], for which, on human TIMP-3, the EC50 was 26.5 ± 7.5 nM.

For `O=C(Nc1cc(C(=O)Nc2ccc(S(=O)(=O)O)cc2)cc(C(=O)Nc2ccc(S(=O)(=O)O)cc2)c1)Nc1cc(C(=O)Nc2ccc(S(=O)(=O)O)cc2)cc(C(=O)Nc2ccc(S(=O)(=O)O)cc2)c1` [NF110, 4,4′,4′′,4′′′-[carbonylbis[imino-5,1,3-benzenetriylbis(carbonylimino)]]tetrakisbenzenesulfonic acid tetrasodium salt], the EC50 on human TIMP-3 is 6.88 ± 0.96 nM.

Regarding `O=C(Nc1cccc(C(=O)Nc2cc(C(=O)Nc3ccc(S(=O)(=O)O)c4cc(S(=O)(=O)O)cc(S(=O)(=O)O)c34)ccc2F)c1)Nc1cccc(C(=O)Nc2cc(C(=O)Nc3ccc(S(=O)(=O)O)c4cc(S(=O)(=O)O)cc(S(=O)(=O)O)c34)ccc2F)c1` [NF157, 8,8′-[carbonylbis[imino-3,1-phenylenecarbonylimino(4-fluoro-3,1-phenylene)carbonylimino]]bis-1,3,5-naphthalenetrisulfonic acid hexasodium salt], on human TIMP-3, the EC50 stood at 1.55 ± 0.11 nM and the Kd worked out at 1.5 ± 0.11 nM.

With `O=C(Nc1ccc(C(=O)Nc2ccc(C(=O)Nc3ccc(S(=O)(=O)O)c4cc(S(=O)(=O)O)cc(S(=O)(=O)O)c34)cc2)cc1)Nc1ccc(C(=O)Nc2ccc(C(=O)Nc3ccc(S(=O)(=O)O)c4cc(S(=O)(=O)O)cc(S(=O)(=O)O)c34)cc2)cc1` [NF279, 8,8′-[carbonylbis(imino-4,1-phenylenecarbonylimino-4,1-phenylenecarbonylimino)]bis-1,3,5-naphthalenetrisulfonic acid hexasodium salt], the IC50 in test [1] (48 h, retinoic acid 1 µM, 48 hours, DMMB assay, read-out: IC50 for inhibition of aggrecan release) was 15.6 ± 10 mg/L. Further, the 50% inhibitory concentration (IC50) in test [1] (µg/ml value given in molar units, read-out: IC50 for chondroprotective activity) is 11600 nM. The “improvement of IC50 value relative to suramin” value in test [1] was 6 fold. Further, in test [1] (setting [4]), the “protection of cartilage (release of aggrecan fragments) compared with suramin” value (“protection of cartilage … compared with suramin” for short) is “markedly improved activity” and the “IC50 for inhibition of aggrecan release” value was 15 mg/L. In test [2], the “TIMP-3 accumulation in the medium relative to suramin, defined as 100%” value is 233% ± 73%. The “inhibition of purinergic signaling in chondrocytes” value in test [3] is reported as “less effective than suramin”. Besides, on human TIMP-3, a half-maximal response (EC50) required 0.85 ± 0.09 nM and the Kd stood at 0.85 ± 0.09 nM.

With `Cc1ccc(C(=O)Nc2cc(S(=O)(=O)[O-])cc3ccc(S(=O)(=O)[O-])cc23)cc1NC(=O)Nc1cc(C(=O)Nc2cc(S(=O)(=O)[O-])cc3ccc(S(=O)(=O)[O-])cc23)ccc1C.[Na+].[Na+].[Na+].[Na+]` [NF340, 4,4′-(carbonylbis(imino-3,1-(4-methyl-phenylene)carbonylimino))bis(naphthalene-2,6-disulfonic acid) tetrasodium salt], the “protection of cartilage … compared with suramin” value in test [1] (setting [4]) is given as “less effective”. In test [2], the “TIMP-3 accumulation in the medium relative to suramin, defined as 100%” value is “minimal efficacy; also recorded: less effective”. Further, the EC50 on human TIMP-3 is > 100 nM.

At human TIMP-3, `O=C(Nc1cc(C(=O)Nc2ccc(S(=O)(=O)O)cc2S(=O)(=O)O)cc(C(=O)Nc2ccc(S(=O)(=O)O)cc2S(=O)(=O)O)c1)Nc1cc(C(=O)Nc2ccc(S(=O)(=O)O)cc2S(=O)(=O)O)cc(C(=O)Nc2ccc(S(=O)(=O)O)cc2S(=O)(=O)O)c1` [NF449, 4,4′,4′′,4′′′-[carbonylbis(imino-5,1,3-benzenetriyl-bis(carbonylimino))]tetrakis-1,3-benzenedisulfonic acid, octasodium salt] showed an EC50 of 4.66 ± 0.69 nM.

As for `Cc1ccc(C(=O)Nc2ccc(CP(=O)([O-])O)cc2CP(=O)([O-])O)cc1NC(=O)c1cccc(NC(=O)Nc2cccc(C(=O)Nc3cc(C(=O)Nc4ccc(CP(=O)([O-])O)cc4CP(=O)([O-])O)ccc3C)c2)c1.[Na+].[Na+].[Na+].[Na+]` [NF546, 4,4′-(carbonylbis(imino-3,1-phenylene-carbonylimino-3,1-(4-methyl-phenylene)carbonylimino))-bis(1,3-xylene-α,α′-diphosphonic acid tetrasodium salt], the EC50 at human TIMP-3 is > 100 nM.

`Cc1ccc(C(=O)Nc2ccc(CP(=O)([O-])O)cc2CP(=O)([O-])O)cc1NC(=O)c1cccc(NC(=O)Nc2cccc(C(=O)Nc3cc(C(=O)Nc4ccc(CP(=O)([O-])O)cc4CP(=O)([O-])O)ccc3C)c2)c1.[Na+].[Na+].[Na+].[Na+]` [NF546]: the “protection of cartilage … compared with suramin” value in test [1] (setting [4]) is recorded as “less effective”. Further, the “TIMP-3 accumulation in the medium relative to suramin, defined as 100%” value in test [2] is reported as “minimal efficacy; also recorded: less effective”.
